Assay type in all cases: cell-based
Assay [1] concerns the target T1, GLP-1R (Homo sapiens, UniProt P43220). The experiment in a line: HitHunter cAMP assay (GLP-1R). As to conditions: cAMP; for Emax: read-out: (Emax) GLP-1R. The essentials:
(§1)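 Luminescent readout of cAMP by enzyme-fragment immunocompetition gave agonist concentration-response data. Cells (10,000/well) sat in HBSS buffer containing IBMX 625 μM, HEPES 10 mM and BSA 0.2%, exposed to agonist for 30 min at room temperature.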

The next assay deals with T2, GIP-R (Homo sapiens, UniProt P48546).
T2 sequence (P48546 22-466): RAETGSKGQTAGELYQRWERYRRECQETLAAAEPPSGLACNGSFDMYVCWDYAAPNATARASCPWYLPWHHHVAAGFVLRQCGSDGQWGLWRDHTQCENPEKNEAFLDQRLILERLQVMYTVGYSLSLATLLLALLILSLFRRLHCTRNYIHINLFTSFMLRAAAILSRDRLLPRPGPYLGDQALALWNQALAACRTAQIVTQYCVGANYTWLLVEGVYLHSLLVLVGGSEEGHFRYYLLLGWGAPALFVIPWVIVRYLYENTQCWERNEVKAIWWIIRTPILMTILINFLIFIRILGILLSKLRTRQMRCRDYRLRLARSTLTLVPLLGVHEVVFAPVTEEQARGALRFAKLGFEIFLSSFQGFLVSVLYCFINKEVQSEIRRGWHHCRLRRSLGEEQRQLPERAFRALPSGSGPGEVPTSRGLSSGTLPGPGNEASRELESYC
As to the kind of experiment: HitHunter cAMP assay (GIP-R). The method, boiled down: as §1

Assay [2] has as its target T1, GLP-1R. The experiment in a line: PathHunter β-arrestin assay. The essentials: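 Overnight-plated cells; 0.2% BSA medium; agonist 22-pt 2× dilution series, duplicate; 90 min, 37 °C/5% CO2; detection reagent 3 h RT, dark; luminescence.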
The mark [3] stands for this setting: Table 3; cAMP; read-out: (Emax) GIP-R.
Setting [4] is: Table 3A; cAMP; read-out: (Emax) GIP-R.
Setting [5] is: Table 3, read-out: EC50 GLP-1R/nM.
[6] abbreviates: Table 3A, read-out: EC50 GLP-1R/nM.
[7] abbreviates: Table 3; cAMP; read-out: EC50 GIP-R/nM.
Where [8] appears, read: Table 3A; cAMP; read-out: EC50 GIP-R/nM.
[9] abbreviates: PathHunter β-arrestin assay, read-out: β-arrestin activity EC50.
[10] abbreviates: read-out: (Emax) GIP-R at 1 μM, Table 3; cAMP; at 1 μM.

Molecules are shown by their SMILES. Where two headings read alike, the source gives them in different places.

T1 sequence (P43220 24-463): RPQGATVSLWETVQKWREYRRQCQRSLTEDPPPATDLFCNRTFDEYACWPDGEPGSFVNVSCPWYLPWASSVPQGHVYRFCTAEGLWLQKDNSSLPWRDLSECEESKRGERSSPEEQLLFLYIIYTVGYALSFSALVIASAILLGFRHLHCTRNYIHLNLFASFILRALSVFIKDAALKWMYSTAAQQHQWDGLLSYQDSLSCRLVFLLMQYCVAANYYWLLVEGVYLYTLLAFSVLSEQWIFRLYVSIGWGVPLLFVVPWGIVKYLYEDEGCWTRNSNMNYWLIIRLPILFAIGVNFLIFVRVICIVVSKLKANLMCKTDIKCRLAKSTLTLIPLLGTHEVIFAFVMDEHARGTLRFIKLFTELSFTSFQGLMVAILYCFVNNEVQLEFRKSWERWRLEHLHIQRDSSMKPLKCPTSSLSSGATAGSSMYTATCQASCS

`CC[C@H](C)[C@H](NC(=O)[C@H](CO)NC(=O)[C@H](Cc1ccc(O)cc1)NC(=O)[C@H](CC(=O)O)NC(=O)[C@H](CO)NC(=O)[C@@H](NC(=O)[C@H](Cc1ccccc1)NC(=O)[C@@H](NC(=O)CNC(=O)[C@H](CCC(=O)O)NC(=O)CSCC(=O)NCCN1C(=O)c2ccc(Cl)cc2C1=O)[C@@H](C)O)[C@@H](C)O)C(=O)N[C@@H](Cc1ccc(O)cc1)C(=O)N[C@@H](CC(C)C)C(=O)N[C@@H](CC(=O)O)C(=O)N[C@@H](CCCCN)C(=O)N[C@@H](CCC(N)=O)C(=O)N[C@@H](C)C(=O)N[C@@H](C)C(=O)NC(C)(C)C(=O)N[C@@H](CCC(=O)O)C(=O)N[C@@H](Cc1ccccc1)C(=O)N[C@H](C(=O)N[C@@H](CC(N)=O)C(=O)N[C@@H](Cc1c[nH]c2ccccc12)C(=O)N[C@@H](CC(C)C)C(=O)N[C@@H](CC(C)C)C(=O)N[C@@H](C)C(=O)NCC(=O)NCC(=O)N1CCC[C@H]1C(=O)N[C@@H](CO)C(=O)N[C@@H](CO)C(=O)NCC(=O)N[C@@H](C)C(=O)N1CCC[C@H]1C(=O)N1CCC[C@H]1C(=O)N1CCC[C@H]1C(=O)N[C@@H](CO)C(=O)N[C@@H](CCCCN)C(N)=O)C(C)C` [Compound 161]: the EC50 at GLP-1R [1] (EC50 GLP-1R/nM, Table 3) was 10 to 100 nM; on GLP-1R [1] (EC50 GLP-1R/nM, Table 3A), 10 to 100 nM; on GIP-R (read-out: EC50 GIP-R/nM; Table 3; cAMP), 1 to 100 nM; on GIP-R (read-out: EC50 GIP-R/nM; Table 3A; cAMP), 1 to 100 nM; on GLP-1R [2], > 1 µM. Moreover, the maximum response (Emax) at GLP-1R [1] (Table 3) was in the range of 89 to 101%; on GLP-1R [1] (Table 3A), 89 to 101%; at GIP-R (setting [3]) it was 58 to 107%; on GIP-R (setting [4]), 58 to 107%.
Consider `CC[C@H](C)[C@H](NC(=O)[C@H](CO)NC(=O)[C@H](Cc1ccc(O)cc1)NC(=O)[C@H](CC(=O)O)NC(=O)[C@H](CO)NC(=O)[C@@H](NC(=O)[C@H](Cc1ccccc1)NC(=O)[C@@H](NC(=O)CNC(=O)[C@H](CCC(=O)O)NC(=O)CCC(=O)NCCN1C(=O)CSC1=O)[C@@H](C)O)[C@@H](C)O)C(=O)N[C@@H](Cc1ccc(O)cc1)C(=O)N[C@@H](CC(C)C)C(=O)N[C@@H](CC(=O)O)C(=O)N[C@@H](CCCCN)C(=O)N[C@@H](CCC(N)=O)C(=O)N[C@@H](C)C(=O)N[C@@H](C)C(=O)NC(C)(C)C(=O)N[C@@H](CCC(=O)O)C(=O)N[C@@H](Cc1ccccc1)C(=O)N[C@H](C(=O)N[C@@H](CC(N)=O)C(=O)N[C@@H](Cc1c[nH]c2ccccc12)C(=O)N[C@@H](CC(C)C)C(=O)N[C@@H](CC(C)C)C(=O)N[C@@H](C)C(=O)NCC(=O)NCC(=O)N1CCC[C@H]1C(=O)N[C@@H](CO)C(=O)N[C@@H](CO)C(=O)NCC(=O)N[C@@H](C)C(=O)N1CCC[C@H]1C(=O)N1CCC[C@H]1C(=O)N1CCC[C@H]1C(=O)N[C@@H](CO)C(=O)N[C@@H](CCCCN)C(N)=O)C(C)C` [Compound 192], for which the maximal response (Emax) was found to be 111% at GLP-1R [1] (Table 3), 111% on GLP-1R [1] (Table 3A), 63% on GIP-R (setting [3]) and 63% at GIP-R (setting [4]). Moreover, the EC50 at GLP-1R [1] (setting [5]) is 0.1 to 1 nM; at GLP-1R [1] (setting [6]), 0.1 to 1 nM; at GIP-R (setting [7]) it was 10 to 100 nM; on GIP-R (setting [8]), 10 to 100 nM; at GLP-1R [2] (setting [9]) it was > 1 µM.
In the case of `CC[C@H](C)[C@H](NC(=O)[C@H](CO)NC(=O)[C@H](Cc1ccc(O)cc1)NC(=O)[C@H](CC(=O)O)NC(=O)[C@H](CO)NC(=O)[C@@H](NC(=O)[C@H](Cc1ccccc1)NC(=O)[C@@H](NC(=O)CNC(=O)[C@H](CCC(=O)O)NC(=O)[C@H]1CC[C@H](C(=O)NCCN2C(=O)CSC2=O)CC1)[C@@H](C)O)[C@@H](C)O)C(=O)N[C@@H](Cc1ccc(O)cc1)C(=O)N[C@@H](CC(C)C)C(=O)N[C@@H](CC(=O)O)C(=O)N[C@@H](CCCCN)C(=O)N[C@@H](CCC(N)=O)C(=O)N[C@@H](C)C(=O)N[C@@H](C)C(=O)NC(C)(C)C(=O)N[C@@H](CCC(=O)O)C(=O)N[C@@H](Cc1ccccc1)C(=O)N[C@H](C(=O)N[C@@H](CC(N)=O)C(=O)N[C@@H](Cc1c[nH]c2ccccc12)C(=O)N[C@@H](CC(C)C)C(=O)N[C@@H](CC(C)C)C(=O)N[C@@H](C)C(=O)NCC(=O)NCC(=O)N1CCC[C@H]1C(=O)N[C@@H](CO)C(=O)N[C@@H](CO)C(=O)NCC(=O)N[C@@H](C)C(=O)N1CCC[C@H]1C(=O)N1CCC[C@H]1C(=O)N1CCC[C@H]1C(=O)N[C@@H](CO)C(=O)N[C@@H](CCCCN)C(N)=O)C(C)C` [Compound 183], the Emax on GLP-1R [1] (Table 3) and at GLP-1R [1] (Table 3A) was 95% in each case. Also, the EC50 is 10 to 100 nM on GLP-1R [1] (setting [5]); 10 to 100 nM on GLP-1R [1] (setting [6]); > 1000 nM at GIP-R (setting [7]); > 1000 nM at GIP-R (setting [8]); > 1 µM on GLP-1R [2] (setting [9]). In addition, the maximum response (Emax) at 1 µM on GIP-R (setting [10]) was determined as 1.4%.
As for `CC[C@H](C)[C@H](NC(=O)[C@H](CO)NC(=O)[C@H](Cc1ccc(O)cc1)NC(=O)[C@H](CC(=O)O)NC(=O)[C@H](CO)NC(=O)[C@@H](NC(=O)[C@H](Cc1ccccc1)NC(=O)[C@@H](NC(=O)CNC(=O)[C@H](CCC(=O)O)NC(=O)CCNC(=O)NCCN1C(=O)CSC1=O)[C@@H](C)O)[C@@H](C)O)C(=O)N[C@@H](Cc1ccc(O)cc1)C(=O)N[C@@H](CC(C)C)C(=O)N[C@@H](CC(=O)O)C(=O)N[C@@H](CCCCN)C(=O)N[C@@H](CCC(N)=O)C(=O)N[C@@H](C)C(=O)N[C@@H](C)C(=O)NC(C)(C)C(=O)N[C@@H](CCC(=O)O)C(=O)N[C@@H](Cc1ccccc1)C(=O)N[C@H](C(=O)N[C@@H](CC(N)=O)C(=O)N[C@@H](Cc1c[nH]c2ccccc12)C(=O)N[C@@H](CC(C)C)C(=O)N[C@@H](CC(C)C)C(=O)N[C@@H](C)C(=O)NCC(=O)NCC(=O)N1CCC[C@H]1C(=O)N[C@@H](CO)C(=O)N[C@@H](CO)C(=O)NCC(=O)N[C@@H](C)C(=O)N1CCC[C@H]1C(=O)N1CCC[C@H]1C(=O)N1CCC[C@H]1C(=O)N[C@@H](CO)C(=O)N[C@@H](CCCCN)C(N)=O)C(C)C` [Compound 148], the Emax on GLP-1R [1] (Table 3) is 99%; at GLP-1R [1] (Table 3A), 99%; at GIP-R (setting [3]), 64 to 67%; at GIP-R (setting [4]) it was 64 to 67%. For the same compound, the EC50 is 0.1 to 1 nM on GLP-1R [1] (setting [5]); 0.1 to 1 nM on GLP-1R [1] (setting [6]); 1 to 10 nM at GIP-R (setting [7]); 1 to 10 nM on GIP-R (setting [8]); > 1 µM at GLP-1R [2] (setting [9]).
Take `CC[C@H](C)[C@H](NC(=O)[C@H](CO)NC(=O)[C@H](Cc1ccc(O)cc1)NC(=O)[C@H](CC(=O)O)NC(=O)[C@H](CO)NC(=O)[C@@H](NC(=O)[C@H](Cc1ccccc1)NC(=O)[C@@H](NC(=O)CNC(=O)[C@H](CCC(=O)O)NC(=O)c1ccc(C(=O)NCCN2C(=O)CSC2=O)cc1)[C@@H](C)O)[C@@H](C)O)C(=O)N[C@@H](Cc1ccc(O)cc1)C(=O)N[C@@H](CC(C)C)C(=O)N[C@@H](CC(=O)O)C(=O)N[C@@H](CCCCN)C(=O)N[C@@H](CCC(N)=O)C(=O)N[C@@H](C)C(=O)N[C@@H](C)C(=O)NC(C)(C)C(=O)N[C@@H](CCC(=O)O)C(=O)N[C@@H](Cc1ccccc1)C(=O)N[C@H](C(=O)N[C@@H](CC(N)=O)C(=O)N[C@@H](Cc1c[nH]c2ccccc12)C(=O)N[C@@H](CC(C)C)C(=O)N[C@@H](CC(C)C)C(=O)N[C@@H](C)C(=O)NCC(=O)NCC(=O)N1CCC[C@H]1C(=O)N[C@@H](CO)C(=O)N[C@@H](CO)C(=O)NCC(=O)N[C@@H](C)C(=O)N1CCC[C@H]1C(=O)N1CCC[C@H]1C(=O)N1CCC[C@H]1C(=O)N[C@@H](CO)C(=O)N[C@@H](CCCCN)C(N)=O)C(C)C` [Compound 186]: the Emax on GLP-1R [1] (Table 3) and on GLP-1R [1] (Table 3A) was 94% throughout. For the same compound, the EC50 on GLP-1R [1] (setting [5]) was 1 to 10 nM; at GLP-1R [1] (setting [6]), 1 to 10 nM; at GIP-R (setting [7]), > 1000 nM; on GIP-R (setting [8]), > 1000 nM; at GLP-1R [2] (setting [9]) it was > 1 µM. Further, at GIP-R (setting [10]), the Emax at 1 µM came out at 4%.
